Measured values published in patent US20180028477A1, “TREATMENT OF CARDIAC REMODELING AND OTHER HEART CONDITIONS” (C & C BIOPHARMA, LLC, priority 2013, published 2018).
“And” between values parts separate entries of the source, which are not always exact repeats. Equal entries are not always repeated. “Also recorded” adds a separate entry of the source.

Tests used:
[1] = Serum chemistries in mice subjected to TAC and treated with 8MI (Example 6); assay type: in vivo; conditions: for ALT / BUN / Calcium / Creatinine / Glucose / Total Protein: serum, TAC
Experimental: The effects of 8MI on hypertrophy in a model of moderate pressure overload were tested further (FIGS. 5A-5E). 8MI or its vehicle (DMSO) was administered over a range of concentrations immediately prior to and for 21 days following transverse aortic coarctation (TAC). All experiments were performed on 2-3 month old wild type C57/BL/6 mice. Cardiac hypertrophy was induced by TAC as described in Wei et. al. 2008. Pressure gradients induced by TAC were evaluated postoperatively by pulsed-wave Doppler echocardiography to confirm equivalent gradients in all animals (45±5 mmHg). 8MI was delivered via tail vein injection one day prior to surgical intervention and then daily for 21 days. Blood samples were obtained at sacrifice on day 21 after surgery, and serum was frozen at […] until analysis
Prior to sacrifice, serum was extracted from the blood of the mice treated as described in Example 4.

a variety of cells = assay: Toxicity in the culture of a variety of cells; assay type: cell-based
MEF2 = MEF2 acetylation in myocardial lysates, immunoprecipitation/Western (Example 9); assay type: in vivo, mice
Experimental: Acetyl-MEF2 and acetyl-GATA4 were determined as described in Example 9 in myocardial lysates of TAC- or sham-operated mice treated with the indicated doses of 8MI, or its vehicle (0), as indicated. […] MEF2 acetylation is increased by TAC and reduced by 8MI. Myocardial lysates were immunoprecipitated with either anti-pan MEF2 or GATA4 antibodies, and probed with antibodies against MEF2, GATA4 or acetyl-lysine (control). The quantified data shown in FIG. 9 is from 3 mice per group and normalized to total acetyl-lysine (western blots are not shown).
MEF2 acetylation was determined in myocardial tissue from sham- and TAC-operated mice in the presence of vehicle or 8MI, under the experimental conditions described in Example 4. Protein samples were collected in RIPA (Sigma). […] of protein samples were incubated with 5 μg of acetyl lysine or GATA4 antibodies (Upstate, Charlottesville, Va.) or MEF2 antibody (Santa Cruz Biotechnology, Santa Cruz, Calif.) (5 μg). The immune-complexes were captured using TrueBlot sepharose beads and subjected to Western analysis. The immune complexes were resolved on SDS-PAGE and transferred to nitrocellulose membranes. Membranes were blocked with 5% milk in 0.5% TBS-T for 1 hour at room temperature followed by incubation in primary antibody at appropriate dilutions overnight. […]

[2] = test system: ventricular fibrosis after TAC in mice; assay: TAC 21 days: ventricular fibrosis, Masson's Trichrome (Example 5); assay type: in vivo; conditions: 21 days after TAC
Excerpt: Using cardiac tissue samples obtained from the same mice treated under the experimental conditions described in Example 4, Masson's Trichrome was used to stain fibrotic tissue (FIG. 6A). Fibrotic area was quantified and expressed relative to the total tissue area (FIG. 6B). Ventricular fibrosis was prominent in mice 21 days after TAC, but not in sham-operated mice (FIGS. 6A and 6B).

[3] = test system: cardiac structural and hypertrophy-associated genes (Col1, Col3, ANP, BNP, SERCA2, alpha- and beta-MHC); assay: Quantitative realtime PCR of cardiac structural and hypertrophy-associated genes in left ventricular tissue after TAC (Example 7); assay type: in vivo, mice; conditions: mRNA, 21 days after TAC
Experimental: In parallel samples from the experiment described in Example 4, the expression of a group of cardiac structural and hypertrophy-associated genes were quantified. Total RNA was extracted from left ventricular tissue using TRIzol Reagent (Invitrogen, Carlsbad, Calif.). cDNA was amplified using TaqMan Universal PCR master mix reagent (Applied Biosystems, Foster City, Calif.) under the following conditions: 2 min at 50° C., 10 min at 95° C., 40 cycles: 15 s at 95° C. and 1 min at 60° C. in an ABI 7900HT thermocycler. mRNA expression levels were normalized to those of the internal reference 18S rRNA. All samples were run in duplicates. The following primer sets were used: ANP, BNP, SERCA, MHC, and 18S. Data was analyzed using software RQ manager 1.2 from Applied Biosystems.

[4] = test system: pressure overload produced by transverse aortic coarctation (TAC) in C57/B16 mice; assay type: in vivo
Experimental: […]. Mice were treated with daily injections of MEF2 inhibitor 8MI at the indicated concentrations for two weeks beginning immediately after transverse aortic banding. N=at least 3 per condition. Mice were subjected to either a sham operation (dark gray bars) or TAC (light gray bars). […] Ejection fraction, a measure of contractile function, was determined by echocardiography on a Vevo 770 ultrasound system prior to sacrifice at two weeks.
[…]. TAC has been used extensively to model the clinical hypertrophic stimuli of hypertension, aortic valve disease, and other types of pressure overload. In vivo pressure overload was created in wild type C57/B16 by creation of a surgical restriction in the transverse aorta between the origins of the right and left carotid arteries as previously described in Wei et. al. 2008. Control littermates were subjected to a sham operation. […] Trans-aortic gradients were determined by simultaneous measurements from the right and left carotid arteries using Statham pressure transducers (model P23XL, Viggo-Spectramed, Oxnard, Calif.) zeroed at the level of the right atrium. Pressures were continuously recorded as described in Wei et. al. 2008. […]
C57/B16 mice were treated with 8MI for two weeks and evaluated for cardiac function by echocardiography and for cardiac mass using a standard index of heart weight to tibia length (HW/TL) after sacrifice. […]

[5] = 8MI 5 mg/kg, individual mice #7-9
[6] = 8MI 20 mg/kg, individual mice #10-12
[7] = 8MI 40 mg/kg, individual mice #13-15

For `Nc1ccccc1NC(=O)CCCCCC(=O)Nc1cccc(Br)c1` [8MI], the “tolerability from serum chemistries” value ([1]; TAC mice, 5-40 mg/kg, 21 days) was “well tolerated”, the “mice with significant renal and/or hepatic dysfunction induced by TAC” value ([1]; mice receiving any dose of 8MI (control: 2 out of 3)) was 1 out of 9 and the ALT [1, 5] was 47 U/L and 53 U/L and 58 U/L. The BUN [1, 5] was 26 mg/dL and 21 mg/dL and 25 mg/dL, the Calcium [1, 5] was 11.7 mg/dL and 9.7 mg/dL and 11 mg/dL and the Creatinine [1, 5] was 0.2 mg/dL. The Glucose [1, 5] was 375 mg/dL and 158 mg/dL and 294 mg/dL, the “Total Protein” value [1, 5] was 5.6 g/dL and 5.8 g/dL and 5.4 g/dL and the ALT [1, 6] was 51 U/L and 73 U/L and 57 U/L. The BUN [1, 6] was 21 mg/dL and 19 mg/dL and 28 mg/dL, the Calcium [1, 6] was 9.9 mg/dL and 10.3 mg/dL and 11.1 mg/dL and the Creatinine [1, 6] was 0.2 mg/dL. The Glucose [1, 6] was 224 mg/dL and 177 mg/dL and 326 mg/dL, the “Total Protein” value [1, 6] was 5.3 g/dL and 5.6 g/dL and 6.0 g/dL and the ALT [1, 7] was 56 U/L and 308 U/L and 60 U/L. For the same compound, the BUN [1, 7] was 21 mg/dL and 26 mg/dL and 23 mg/dL, the Calcium [1, 7] was 10.6 mg/dL and 8.7 mg/dL and 10.1 mg/dL and the Creatinine [1, 7] was 0.3 mg/dL (2×) and 0.6 mg/dL. The Glucose [1, 7] was 455 mg/dL and 140 mg/dL and 252 mg/dL, the “Total Protein” value [1, 7] was 6.2 g/dL and 5.5 g/dL and 5.7 g/dL and the “concentration up to which no apparent toxicity was seen” value (a variety of cells) was “up to 20 μM”. The “TAC-induced acetyl-MEF2 content” value (MEF2; TAC-operated mice, increasing doses of 8MI) was “reduced the acetyl-MEF2 content to level at or below those of the sham-operated mice; also recorded: reduced”, the “total acetyl-MEF2 content, basal” value (MEF2; sham-operated mice, maximum dose (40 mg/kg) versus vehicle (DMSO), 40 mg/kg) was “not different; also recorded: does not reduce acetyl-MEF2 levels” and the “fibrotic response (fibrotic area relative to total tissue area)” value ([2]; dose range) was “significantly reduced in a dose-dependent manner; also recorded: reduces fibrosis”. The “fibrotic response (fibrotic area relative to total tissue area) at the highest dosage” value ([2]; highest dosage) was “eliminated”, the “stress-induced expression of B-type natriuretic peptide (BNP)” value [3] was “markedly attenuated” and the “stress-induced expression of Collagen Type 1 (Col1)” value [3] was “markedly attenuated”. The “stress-induced expression of Collagen Type 3 (Col3)” value [3] was “markedly attenuated”, the “stress-induced expression of SERCA2” value [3] was “markedly attenuated” and the “stress-induced expression of alpha-myosin heavy chain” value [3] was “markedly attenuated”. For the same compound, the “stress-induced expression of atrial natriuretic peptide (ANP)” value [3] was “markedly attenuated”, the “stress-induced expression of beta-myosin heavy chain” value [3] was “markedly attenuated” and the mortality ([4]; mouse, in vivo) was “no mortality”. The “TAC-induced reduction of Left Ventricular Ejection Fraction (LVEF)” value ([4]; two weeks after TAC, 5, 20 and 40 μg/g 8MI daily) was “largely prevented this impairment of function”.
